Patent US20090298936A1, “METHOD FOR ENERGIZING HUMAN BEINGS” (SYMRISE GmbH & Co. KG, priority 2008, published 2009)
Where “and” joins values, the source holds several entries; their conditions need not be identical. Identical values can stand only once.

Tested on: healthy human subjects (panelists)
Assay: Sniff test with heartbeat measurement (finger clip Heart Rhythm Monitor, Freeze-Framer 2.0) on human panelists
Assay type: in vivo
Conditions: for energizing effect compared with Amarocite and the mixtures: solution in mineral oil
Text: In order to introduce compounds of group (a) or a sensory complex as described above into the nasal cavity that will occur using many types of products containing the sensory complex the following method of human testing and data collection was developed, standardized and used to collect and analyze data to substantiate the energizing effects of the sensory complex materials in group (a).
Data collection and analysis of each panelists's heart rate was made using a finger clip attachment for the Heart Rhythm Monitor using Freeze-Framer® 2.0 software from HeartMath®, 14700 West Park Avenue, Boulder Creek, Calif.
The test is divided into 3 parts: • 1) the pre-sniff-test period: places the panelist in a neutral state (15 min), • 2) the sniff-test period (5 min), • 3) the post-sniff-test period (10 min). Typically during each test session, three fragrances (single compound or mixture of compounds) are presented to the panelist, so one test lasts for one hour.

## COC(OC)C(C)(C)CC=C(C)C [Amarocite ®, 1,1-dimethoxy-2,2,5-trimethyl-4-hexene]
Individual panelists A-G, after inhalation, 1 wt.-% solution in mineral oil
  Heartbeat (bpm) After: 77 bpm and 81 bpm and 70 bpm and 78 bpm and 72 bpm and 71 bpm and 90 bpm
Individual panelists A-G, after minus before, 1 wt.-% solution in mineral oil
  Heartbeat (bpm) Difference: +9 bpm and +25 bpm and +6 bpm (2×) and +10 bpm and +12 bpm (2×)
Individual panelists A-G, before inhalation (baseline), 1 wt.-% solution in mineral oil
  Heartbeat (bpm) Before: 68 bpm (2×) and 56 bpm and 64 bpm and 60 bpm and 59 bpm and 84 bpm
Mean of panelists A-G, after inhalation, 1 wt.-% solution in mineral oil
  Heartbeat (bpm) After, Mean: 77 bpm
Mean of panelists A-G, after minus before, 1 wt.-% solution in mineral oil
  Heartbeat (bpm) Difference, Mean: +11.4 bpm
Mean of panelists A-G, before inhalation (baseline), 1 wt.-% solution in mineral oil
  Heartbeat (bpm) Before, Mean: 65.6 bpm
panelists, administered according to the protocol
  average heart rate increase: 17.3%

## CCCCCC1C(=O)CCC1CC(=O)OC (stereo not drawn) [methyl dihydro jasmonate]
2.0 wt.-% alone
  energizing effect compared with Amarocite and the mixtures: Stronger energizing effects

## CC(C)CCCC(C)CCO (stereo not drawn) [tetrahydrogeraniol]
0.8 wt.-% alone
  energizing effect compared with Amarocite and the mixtures: Stronger energizing effects
